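Results reflect a 48-hour exposure of cells in 96-well plates to compound at five concentrations. At the GI50, growth is halved.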 Activity calls are given as the source filed them. No stated cut-off is given here; in the data, active = GI50 up to about 1.1 µM and inactive = higher.
Key:
Test in all cases: NCI-60 cell line screen, 48 h
[1] = test system: IGROV-1
[2] = test system: OVCAR-4
[3] = test system: OVCAR-5
[4] = test system: DMS-273
[5] = test system: UACC-257
[6] = test system: RXF 393
[7] = test system: COLO 205
[8] = test system: HOP-62
[9] = test system: DMS-114
[10] = test system: LOX IMVI
[11] = test system: SF-295
[12] = test system: EKVX
[13] = test system: A549
[14] = test system: A498
[15] = test system: KM12
[16] = test system: M19-MEL
[17] = test system: M14
[18] = test system: KM-20L2
[19] = test system: SR
[20] = test system: ACHN
[21] = test system: SF-539
[22] = test system: HL-60
[23] = test system: OVCAR-8
[24] = test system: HT-29
[25] = test system: NCI-H23
[26] = test system: TK-10
[27] = test system: NCI-H460
[28] = test system: NCI-H226
[29] = test system: SW-620
[30] = test system: SN12C
[31] = test system: UO-31
[32] = test system: HCC 2998
[33] = test system: K562
[34] = test system: MOLT-4
[35] = test system: U-251
[36] = test system: OVCAR-3
[37] = test system: 786-0
[38] = test system: LXFL 529
[39] = test system: HCT-116
[40] = test system: SNB-78
[41] = test system: CCRF-CEM
[42] = test system: SK-MEL-2
[43] = test system: SNB-19
[44] = test system: SK-MEL-5
[45] = test system: HOP-92
[46] = test system: HCT-15
[47] = test system: SF-268
[48] = test system: RPMI-8226
[49] = test system: HOP-18
[50] = test system: SK-MEL-28
[51] = test system: UACC-62
[52] = test system: CAKI-1
[53] = test system: NCI-H522
[54] = test system: Malme-3M
[55] = test system: SNB-75
[56] = test system: DLD-1
[57] = test system: SK-OV-3

Measured: GI50

N=C1c2ccccc2C(=O)c2c(NCCNCCO)ccc(O)c21
25.5 µM: [46]
inactive: [1] 5.38 µM | [2] 23.4 µM | [3] 16 µM | [4] 5.57 µM | [5] 13.9 µM | [6] 4.66 µM | [7] 4.73 µM | [8] 4.91 µM | [9] 3.93 µM | [10] 4.15 µM | [11] 12.5 µM | [12] 12 µM | [13] 6.3 µM | [14] 13.7 µM | [15] 6.92 µM | [16] 5.55 µM | [17] 10.3 µM | [18] 5 µM | [20] 3.23 µM | [21] 4.73 µM | [22] 6.85 µM | [23] 4.72 µM | [24] 9.02 µM | [25] 9.16 µM | [26] 11.9 µM | [27] 5.06 µM | [28] 9.84 µM | [29] 3.1 µM | [30] 4.83 µM | [31] 7.83 µM | [32] 9.42 µM | [33] 3.64 µM | [34] 1.88 µM | [35] 4.46 µM | [36] 12.9 µM | [37] 4.73 µM | [38] 6.5 µM | [39] 3.27 µM | [40] 18.8 µM | [41] 9.62 µM | [42] 17.1 µM | [43] 8.24 µM | [44] 7.03 µM | [45] 24.9 µM | [47] 3.3 µM | [48] 7.19 µM | [49] 11.5 µM | [50] 8.15 µM | [51] 6.4 µM | [52] 10.3 µM | [53] 3.4 µM | [54] 13.7 µM | [55] 15.6 µM | [56] 5.92 µM | [57] 6.55 µM
active: [19] 0.579 µM
